Assay results: patent publication US20150183802A1, “TRICYCLIC SULFONAMIDE DERIVATIVES” (NOVARTIS AG, priority 2013, published 2015)

biological target: T1, hNav1.7 channels (Homo sapiens, UniProt Q15858); assay: hNav1.7 channel in vitro patch-clamp assay; assay type: cell-based; settings: stable HEK293 cell line expressing hNav1.7; whole cell patch-clamp (QPatch HTX and/or conventional), room temperature; voltage protocol not given
T1 construct: host or cells: HEK293
Procedure: hNav1.7 Channel In Vitro Patch-Clamp Assay
Cells: Sable HEK293 (human embryonic kidney) cell line expressing hNav1.7 channels was used in the assay. The cell line was obtained from Millipore (Millipore Corporation, MA).
Patch-clamp recordings: The recordings were performed on QPatch HTX (Sophion Bioscience, Denmark) and/or conventional patch-clamp (Axon Multiclamp 700B systems, Molecular Devices, CA) platforms at room temperature, using whole cell patch-clamp techniques. The composition of extracellular solution was (in mM): HEPES 5, NaCl 40, KCl 3, CaCl2 1, MgCl2 1, Choline Chloride 100. Adjust pH to 7.2 with 1N NaOH, osmolarity to 300-310 mOsm with sucrose. The composition of intracellular solution was (in mM): HEPES 10, NaCl 10, Na2ATP 1, MgCl2 2, KF 135, EGTA 10. Adjust pH to 7.2 with 1N NaOH, osmolarity to 290-300 mOsm with sucrose.
For conventional patch-clamp, 35 mm culture dishes containing hNav1.7 cells were placed on the stage of an inverted microscope and continuously perfused with extracellular solution from a perfusion system (Biologic Rapid solution changer, RSC-160, ˜1 ml/min). […] The recordings were controlled by pCLAMP10 software. Test compounds were dissolved in 100% DMSO to make stock solutions for each test concentration, and then diluted into extracellular solution to achieve final concentration for testing. Final DMSO concentration was less than 0.3%. Two voltage protocols were used in hNav1.7 assay: for non-inactivated protocol, the sodium currents were elicited by a 2 ms pulse to −10 mV from a holding potential of −110 mV. For inactivated protocol, the holding potential was set at V1/2. The voltage was firstly stepped to −110 mV for 50 ms, then to −10 mV for 2 ms and then stepped back to holding potential. In both protocols the voltage command was given in every 10 s. Compound effect (% inhibition) was determined by difference in current amplitude before and after the application of test compounds. IC50 values were determined from concentration-response curves that were obtained with Hill fitting.
For QPatch HTX assay, hNav1.7 cells grown to 50%-80% confluence were rinsed with DPBS and dissociated with Tryple (Invitrogen, 12605-010). The dissociated cells were then mixed with extracellular solution. After centrifuge, the cells were resuspended in extracellular solution and used in the QPatch experiment. The whole-cell protocols, voltage protocols and application protocols were established with QPatch Assay Software 3.4 (Sophion Bioscience, Denmark). Only the inactivated protocol was used in the QPatch assay.

T1 sequence (Q15858 whole entry): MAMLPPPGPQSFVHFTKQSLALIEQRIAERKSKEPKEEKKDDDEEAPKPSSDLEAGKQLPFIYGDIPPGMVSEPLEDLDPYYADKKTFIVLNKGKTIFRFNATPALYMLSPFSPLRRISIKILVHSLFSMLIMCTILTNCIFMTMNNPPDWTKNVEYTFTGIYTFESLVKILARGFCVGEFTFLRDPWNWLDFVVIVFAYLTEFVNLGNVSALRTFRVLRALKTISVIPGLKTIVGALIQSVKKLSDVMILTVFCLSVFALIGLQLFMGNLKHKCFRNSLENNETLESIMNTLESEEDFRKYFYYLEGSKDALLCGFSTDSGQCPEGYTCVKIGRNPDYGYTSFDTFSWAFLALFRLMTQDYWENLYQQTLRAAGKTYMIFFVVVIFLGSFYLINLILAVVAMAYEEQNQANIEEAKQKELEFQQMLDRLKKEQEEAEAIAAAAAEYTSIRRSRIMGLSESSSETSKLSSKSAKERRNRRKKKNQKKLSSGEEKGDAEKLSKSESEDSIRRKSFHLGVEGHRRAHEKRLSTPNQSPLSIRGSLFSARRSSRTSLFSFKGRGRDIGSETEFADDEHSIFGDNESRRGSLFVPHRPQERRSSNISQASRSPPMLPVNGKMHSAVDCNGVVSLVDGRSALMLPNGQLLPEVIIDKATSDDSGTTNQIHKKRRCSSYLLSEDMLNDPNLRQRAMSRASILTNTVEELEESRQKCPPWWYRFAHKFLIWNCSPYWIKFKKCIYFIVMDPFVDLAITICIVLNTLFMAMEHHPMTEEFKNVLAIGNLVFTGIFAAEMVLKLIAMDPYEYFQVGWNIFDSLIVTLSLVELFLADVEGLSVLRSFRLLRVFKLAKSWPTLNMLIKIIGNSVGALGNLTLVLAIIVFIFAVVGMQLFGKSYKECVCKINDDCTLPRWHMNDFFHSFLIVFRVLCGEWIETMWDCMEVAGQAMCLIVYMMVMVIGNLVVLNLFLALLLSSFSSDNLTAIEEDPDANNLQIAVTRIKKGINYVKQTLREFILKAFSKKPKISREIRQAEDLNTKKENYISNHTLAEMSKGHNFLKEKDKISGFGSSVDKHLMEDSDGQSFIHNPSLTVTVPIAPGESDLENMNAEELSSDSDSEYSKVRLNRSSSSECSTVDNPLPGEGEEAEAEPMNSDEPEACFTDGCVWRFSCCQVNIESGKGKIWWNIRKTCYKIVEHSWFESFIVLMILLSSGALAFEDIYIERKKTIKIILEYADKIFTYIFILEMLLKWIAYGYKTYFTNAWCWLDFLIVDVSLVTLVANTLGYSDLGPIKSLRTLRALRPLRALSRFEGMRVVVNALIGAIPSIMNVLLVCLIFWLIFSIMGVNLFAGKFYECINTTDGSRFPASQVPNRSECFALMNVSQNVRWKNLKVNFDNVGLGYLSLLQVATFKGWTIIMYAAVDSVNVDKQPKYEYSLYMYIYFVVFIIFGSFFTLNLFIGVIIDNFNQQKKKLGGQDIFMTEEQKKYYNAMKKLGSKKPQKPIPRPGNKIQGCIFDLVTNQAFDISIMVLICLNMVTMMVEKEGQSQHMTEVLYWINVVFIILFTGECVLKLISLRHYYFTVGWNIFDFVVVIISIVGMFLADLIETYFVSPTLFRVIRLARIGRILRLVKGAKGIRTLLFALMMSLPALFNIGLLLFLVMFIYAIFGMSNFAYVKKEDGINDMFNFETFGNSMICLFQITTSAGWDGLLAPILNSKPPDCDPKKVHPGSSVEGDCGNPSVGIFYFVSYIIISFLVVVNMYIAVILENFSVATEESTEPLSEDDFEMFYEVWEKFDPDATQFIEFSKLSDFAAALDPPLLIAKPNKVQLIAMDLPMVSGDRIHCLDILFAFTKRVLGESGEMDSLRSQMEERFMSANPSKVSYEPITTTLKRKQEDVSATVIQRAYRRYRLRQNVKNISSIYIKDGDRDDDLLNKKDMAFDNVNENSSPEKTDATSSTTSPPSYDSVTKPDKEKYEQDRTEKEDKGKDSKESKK

| SMILES | IC50 [nM] |
| --- | --- |
| O=C1N(c2cnc(OCCCC(F)(F)F)c(Cl)c2)c2cc3onc(NS(=O)(=O)C4CC4)c3cc2C12CC2 [Example 17, N-(7′-(5-chloro-6-(4,4,4-trifluorobutoxyl)pyridin-3-yl)-6′-oxo-6′,7′-dihydrospiro[cyclopropane-1,5′-isoxazolo[4,5-f]indol]-3′-yl)cyclopropanesulfonamide] | 200 |
| CCS(=O)(=O)Nc1noc2cc3c(cc12)C1(CC1)C(=O)N3c1cnc(OCC(C)C)c(Cl)c1 [Example 4, N-(7′-(5-chloro-6-isobutoxypyridin-3-yl)-6′-oxo-6′,7′-dihydrospiro[cyclopropane-1,5′-isoxazolo[4,5-f]indol]-3′-yl)ethanesulfonamide] | 100 |
| CS(=O)(=O)Nc1noc2cc3c(cc12)C1(CC1)C(=O)N3c1cnc(OCC2CCC(F)(F)CC2)c(Cl)c1 [Example 13, N-(7′-(5-chloro-6-((4,4-difluorocyclohexyl)methoxy)pyridin-3-yl)-6′-oxo-6′,7′-dihydrospiro[cyclopropane-1,5′-isoxazolo[4,5-f]indol]-3′-yl)methanesulfonamide] | 300 |
| O=C1N(c2cnc(OCC3CCCC3)c(Cl)c2)c2cc3onc(NS(=O)(=O)C4CC4)c3cc2C12CC2 [Example 27, N-(7′-(5-chloro-6-(cyclopentylmethoxy)pyridin-3-yl)-6′-oxo-6′,7′-dihydrospiro[cyclopropane-1,5′-isoxazolo[4,5-f]indol]-3′-yl)cyclopropanesulfonamide] | 90 |
| CC(C)COc1ncc(N2C(=O)C3(CCCC3)c3cc4c(NS(=O)(=O)C5CC5)noc4cc32)cc1Cl [Example 38, N-(7′-(5-chloro-6-isobutoxypyridin-3-yl)-6′-oxo-6′,7′-dihydrospiro[cyclopentane-1,5′-isoxazolo[4,5-f]indol]-3′-yl)cyclopropanesulfonamide] | 500 |
| O=C1N(c2cnc(OC3CC(F)(F)C3)c(Cl)c2)c2cc3onc(NS(=O)(=O)C4CC4)c3cc2C12CC2 [Example 19, N-(7′-(5-chloro-6-(3,3-difluorocyclobutoxyl)pyridin-3-yl)-6′-oxo-6′,7′-dihydrospiro[cyclopropane-1,5′-isoxazolo[4,5-f]indol]-3′-yl)cyclopropanesulfonamide] | 200 |
| CC(C)COc1ncc(-c2cncc3cc4c(NS(C)(=O)=O)noc4cc23)cc1Cl [Example 57, N-(8-(5-chloro-6-isobutoxypyridin-3-yl)isoxazolo[5,4-g]isoquinolin-3-yl)methanesulfonamide] | 2360 |
| CC(C)COc1ncc(N2C(=O)C3(CC3)c3cc4c(NS(N)(=O)=O)noc4cc32)cc1Cl [Example 8, N-(7′-(5-chloro-6-isobutoxypyridin-3-yl)-6′-oxo-6′,7′-dihydrospiro[cyclopropane-1,5′-isoxazolo[4,5-f]indol]-3′-yl)aminosulfonamide] | 2000 |
| O=C1N(c2cnc(OCC3CC3)c(Cl)c2)c2cc3onc(NS(=O)(=O)C4CC4)c3cc2C12CC2 [Example 28, N-(7′-(5-chloro-6-(cyclopropylmethoxy)pyridin-3-yl)-6′-oxo-6′,7′-dihydrospiro[cyclopropane-1,5′-isoxazolo[4,5-f]indol]-3′-yl)cyclopropanesulfonamide] | 200 |
| CC(C)COc1ncc(-n2c(=O)n(C)c3cc4c(NS(=O)(=O)C5CC5)noc4cc32)cc1Cl [Example 35, N-(7-(5-chloro-6-isobutoxypyridin-3-yl)-5-methyl-6-oxo-6,7-dihydro-5H-imidazo[4′,5′:4,5]benzo[1,2-d]isoxazol-3-yl)cyclopropanesulfonamide] | 100 |
| CS(=O)(=O)Nc1noc2cc3c(cc12)C1(CC1)C(=O)N3c1cnc(OCC2CCOCC2)c(Cl)c1 [Example 12, N-(7′-(5-chloro-6-((tetrahydro-2H-pyran-4-yl)methoxy)pyridin-3-yl)-6′-oxo-6′,7′-dihydrospiro[cyclopropane-1,5′-isoxazolo[4,5-f]indol]-3′-yl)methanesulfonamide] | 2000 |
| Cc1cn(-c2cnc(OCC(C)C)c(Cl)c2)c2cc3onc(NS(=O)(=O)C4CC4)c3cc12 [Example 42, N-(7-(5-chloro-6-isobutoxypyridin-3-yl)-5-methyl-7H-isoxazolo[4,54]indol-3-yl)cyclopropanesulfonamide] | 70 |
| CC(C)COc1ncc(-c2ccnc3cc4c(NS(=O)(=O)C5CC5)noc4cc23)cc1Cl [Example 55, N-(8-(5-chloro-6-isobutoxypyridin-3-yl)isoxazolo[5,4-g]quinolin-3-yl)cyclopropanesulfonamide] | 850 |
| COc1ncc(N2C(=O)C3(CC3)c3cc4c(NS(=O)(=O)C5CC5)noc4cc32)cc1Cl [Example 29, N-(7′-(5-chloro-6-methoxypyridin-3-yl)-6′-oxo-6′,7′-dihydrospiro[cyclopropane-1,5′-isoxazolo[4,5-f]indol]-3′-yl)cyclopropanesulfonamide] | 800 |
| CC(C)COc1ncc(N2C(=O)C3(CC3)c3cc4c(NS(=O)(=O)N5CCCC5)noc4cc32)cc1Cl [Example 10, N-(7′-(5-chloro-6-isobutoxypyridin-3-yl)-6′-oxo-6′,7′-dihydrospiro[cyclopropane-1,5′-isoxazolo[4,5-f]indol]-3′-yl)pyrrolidine-1-sulfonamide] | 500 |
| CC(C)COc1ncc(-n2c(C(F)(F)F)cc3cc4c(NS(C)(=O)=O)noc4cc32)cc1Cl [Example 40b, N-(7-(5-chloro-6-isobutoxypyridin-3-yl)-6-(trifluoromethyl)-7H-isoxazolo[4,5-f]indol-3-yl)methanesulfonamide] | 40 |
| Cc1nn(-c2cnc(OCC(C)C)c(Cl)c2)c2cc3onc(NS(C)(=O)=O)c3cc12 [Example 44, N-(7-(5-chloro-6-isobutoxypyridin-3-yl)-5-methyl-7H-isoxazolo[4,54]indazol-3-yl)methanesulfonamide] | 100 |
| Cc1nn(-c2cnc(OCC(C)C)c(Cl)c2)c2cc3onc(NS(=O)(=O)C4CC4)c3cc12 [Example 45, N-(7-(5-chloro-6-isobutoxypyridin-3-yl)-5-methyl-7H-isoxazolo[4,5-f]indazol-3-yl)cyclopropanesulfonamide] | 30 |
| CC(C)COc1ncc(N2C(=O)C3(CC3)c3cc4c(NS(=O)(=O)c5cccs5)noc4cc32)cc1Cl [Example 7, N-(7′-(5-chloro-6-isobutoxypyridin-3-yl)-6′-oxo-6′,7′-dihydrospiro[cyclopropane-1,5′-isoxazolo[4,5-f]indol]-3′-yl)thiophene-2-sulfonamide] | 500 |
| CC(C)COc1ncc(N2C(=O)C3(CC3)c3cc4c(NS(=O)(=O)C(F)(F)F)noc4cc32)cc1Cl [Example 5, N-(7′-(5-chloro-6-isobutoxypyridin-3-yl)-6′-oxo-6′,7′-dihydrospiro[cyclopropane-1,5′-isoxazolo[4,5-f]indol]-3′-yl)-1,1,1-trifluoromethanesulfonamide] | 430 |
| O=C1N(c2cnc(OC3CCCCC3)c(Cl)c2)c2cc3onc(NS(=O)(=O)C4CC4)c3cc2C12CC2 [Example 26, N-(7′-(5-chloro-6-(cyclohexyloxy)pyridin-3-yl)-6′-oxo-6′,7′-dihydrospiro[cyclopropane-1,5′-isoxazolo[4,5-f]indol]-3′-yl)cyclopropanesulfonamide] | 110 |
| Cc1nn(-c2ccc(Cl)c(Cl)c2)c2cc3onc(NS(=O)(=O)C4CC4)c3cc12 [Example 46, N-(7-(3,4-dichlorophenyl)-5-methyl-7H-isoxazolo[4,5-f]indazol-3-yl)cyclopropanesulfonamide] | 100 |
